Data as given in patent publication US8916565B2, “Pyrrolopyrazine-spirocyclic piperidine amides as modulators of ion channels” (priority 2011, dated 2014).

target: human NaV subtype, like NaV 1.7 (Homo sapiens, UniProt Q15858); test: E-VIPR optical membrane potential assay with electrical stimulation; assay type: cell-based; details: active against one or more sodium channels; Table 3 does not name the assay or NaV subtype; read-out: Binned Activity Data (IC50)
Source text: Assays for Detecting and Measuring NaV Inhibition Properties of Compound E-VIPR Optical Membrane Potential Assay Method with Electrical Stimulation
Sodium channels are voltage-dependent proteins that can be activated by inducing membrane voltage changes by applying electric fields. The electrical stimulation instrument and methods of use are described in Ion Channel Assay Methods PCT/US01/21652, herein incorporated by reference and are referred to as E-VIPR. The instrument comprises a microtiter plate handler, an optical system for exciting the coumarin dye while simultaneously recording the coumarin and oxonol emissions, a waveform generator, a current- or voltage-controlled amplifier, and a device for inserting electrodes in well. Under integrated computer control, this instrument passes user-programmed electrical stimulus protocols to cells within the wells of the microtiter plate.
24 hours before the assay on E-VIPR, HEK cells expressing human NaV subtype, like NaV 1.7, are seeded in 384-well poly-lysine coated plates at 15,000-20,000 cells per well. Other subtypes are performed in an analogous mode in a cell line expressing the NaV of interest. HEK cells are grown in media (exact composition is specific to each cell type and NaV subtype) supplemented with 10% FBS (Fetal Bovine Serum, qualified; GibcoBRL #16140-071) and 1% Pen-Strep (Penicillin-Streptomycin; GibcoBRL #15140-122). Cells are grown in vented cap flasks, in 90% humidity and 10% CO2, to 100% confluence. They are usually split by trypsinization 1:10 or 1:20, depending on scheduling needs, and grown for 2-3 days before the next split.
Bath 1 buffer. Glucose 10 mM (1.8 g/L), Magnesium Chloride (Anhydrous), 1 mM (0.095 g/L), Calcium Chloride, 2 mM (0.222 g/L), HEPES 10 mM (2.38 g/L), Potassium Chloride, 4.5 mM (0.335 g/L), Sodium Chloride 160 mM (9.35 g/L).
Hexyl Dye Solution: Bath 1 Buffer+0.5% β-cyclodextrin (make this prior to use, Sigma #C4767), 8 μM CC2-DMPE+2.5 μM DiSBAC6(3). To make the solution Add volume of 10% Pluronic F127 stock equal to volumes of CC2-DMPE+DiSBAC6(3). The order of preparation is first mix Pluronic and CC2-DMPE, then add DiSBAC6(3) while vortexing, then add Bath 1+β-Cyclodextrin.
1) Pre-spot compounds (in neat DMSO) into compound plates. Vehicle control (neat DMSO), the positive control (20 mM DMSO stock tetracaine, 125 μM final in assay) and test compounds are added to each well at 160× desired final concentration in neat DMSO. Final compound plate volume will be 80 μL (80-fold intermediate dilution from 1 μL DMSO spot; 160-fold final dilution after transfer to cell plate). Final DMSO concentration for all wells in assay is 0.625%.
2) Prepare Hexyl Dye Solution.
3) Prepare cell plates. On the day of the assay, medium is aspirated and cells are washed three times with 100 μL of Bath 1 Solution, maintaining 25 μL residual volume in each well.
4) Dispense 25 μL per well of Hexyl Dye Solution into cell plates. Incubate for 20-35 minutes at room temp or ambient conditions.
5) Dispense 80 μL per well of Bath 1 into compound plates. Acid Yellow-17 (1 mM) is added and Potassium Chloride can be altered from 4.5 to 20 mM depending on the NaV subtype and assay sensitivity.
6) Wash cell plates three times with 100 μL per well of Bath1, leaving 25 μL of residual volume. Then transfer 25 uL per well from Compound Plates to Cell Plates. Incubate for 20-35 minutes at room temp/ambient condition
7) Read Plate on E-VIPR. Use the current-controlled amplifier to deliver stimulation wave pulses for typically 9 seconds and a scan rate of 400 Hz. A pre-stimulus recording is performed for 0.5 seconds to obtain the un-stimulated intensities baseline. The stimulatory waveform is applied for 9 seconds followed by 0.5 seconds of post-stimulation recording to examine the relaxation to the resting state.

Chain of human NaV subtype, like NaV 1.7 (Q15858 whole entry): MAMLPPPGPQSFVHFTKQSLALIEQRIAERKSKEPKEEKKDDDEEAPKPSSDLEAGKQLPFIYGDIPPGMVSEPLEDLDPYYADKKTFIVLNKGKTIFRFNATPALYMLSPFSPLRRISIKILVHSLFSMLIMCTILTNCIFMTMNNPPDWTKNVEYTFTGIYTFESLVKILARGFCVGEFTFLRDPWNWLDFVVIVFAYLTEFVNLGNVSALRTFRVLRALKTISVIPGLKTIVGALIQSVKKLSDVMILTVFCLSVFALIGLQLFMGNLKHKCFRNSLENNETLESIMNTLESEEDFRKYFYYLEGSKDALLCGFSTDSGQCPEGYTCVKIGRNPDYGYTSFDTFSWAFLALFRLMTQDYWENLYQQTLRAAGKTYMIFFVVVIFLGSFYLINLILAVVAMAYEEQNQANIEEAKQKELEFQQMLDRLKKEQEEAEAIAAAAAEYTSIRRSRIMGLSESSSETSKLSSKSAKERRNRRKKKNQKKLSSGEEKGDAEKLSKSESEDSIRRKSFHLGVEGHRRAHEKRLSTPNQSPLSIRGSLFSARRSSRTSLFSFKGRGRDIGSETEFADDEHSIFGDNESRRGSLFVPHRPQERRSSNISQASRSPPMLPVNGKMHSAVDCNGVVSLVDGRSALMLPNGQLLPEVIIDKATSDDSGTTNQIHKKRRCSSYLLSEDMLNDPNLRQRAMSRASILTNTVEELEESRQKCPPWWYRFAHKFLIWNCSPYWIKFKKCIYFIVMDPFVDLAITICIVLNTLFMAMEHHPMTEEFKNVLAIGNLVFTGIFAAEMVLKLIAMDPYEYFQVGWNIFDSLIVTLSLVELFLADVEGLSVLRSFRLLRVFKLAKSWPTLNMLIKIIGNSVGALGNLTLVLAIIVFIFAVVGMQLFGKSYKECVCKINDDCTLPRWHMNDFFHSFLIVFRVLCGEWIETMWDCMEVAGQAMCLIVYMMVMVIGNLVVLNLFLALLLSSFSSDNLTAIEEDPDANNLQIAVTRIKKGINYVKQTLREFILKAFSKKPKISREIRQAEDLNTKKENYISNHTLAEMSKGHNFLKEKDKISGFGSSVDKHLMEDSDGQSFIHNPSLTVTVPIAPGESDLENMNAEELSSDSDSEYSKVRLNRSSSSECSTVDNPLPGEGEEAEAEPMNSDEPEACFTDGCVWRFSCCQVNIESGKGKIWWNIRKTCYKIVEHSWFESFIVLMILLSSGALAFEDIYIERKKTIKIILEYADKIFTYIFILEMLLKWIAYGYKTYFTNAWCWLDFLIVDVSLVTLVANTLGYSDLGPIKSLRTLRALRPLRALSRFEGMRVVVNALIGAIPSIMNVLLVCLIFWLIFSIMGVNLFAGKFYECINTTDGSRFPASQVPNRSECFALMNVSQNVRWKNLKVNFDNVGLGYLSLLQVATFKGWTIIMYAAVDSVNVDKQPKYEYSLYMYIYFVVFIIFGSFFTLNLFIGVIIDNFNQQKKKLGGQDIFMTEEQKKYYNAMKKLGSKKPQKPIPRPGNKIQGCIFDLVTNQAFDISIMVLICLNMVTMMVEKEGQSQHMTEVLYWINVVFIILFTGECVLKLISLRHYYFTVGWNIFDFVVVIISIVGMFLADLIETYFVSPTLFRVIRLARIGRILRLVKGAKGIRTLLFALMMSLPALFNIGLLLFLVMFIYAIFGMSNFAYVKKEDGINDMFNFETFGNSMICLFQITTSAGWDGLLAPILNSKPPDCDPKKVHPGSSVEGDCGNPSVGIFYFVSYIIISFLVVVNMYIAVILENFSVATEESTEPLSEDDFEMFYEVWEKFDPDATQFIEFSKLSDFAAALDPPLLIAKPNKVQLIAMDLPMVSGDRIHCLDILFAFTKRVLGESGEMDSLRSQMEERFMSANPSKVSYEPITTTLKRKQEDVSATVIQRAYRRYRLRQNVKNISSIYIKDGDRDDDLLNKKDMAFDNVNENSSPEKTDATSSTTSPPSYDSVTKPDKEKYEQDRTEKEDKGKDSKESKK

Compound | IC50 [nM]
COc1ccc(C(=O)N2CCC3(CC2)c2ccc(C(=O)C(F)(F)F)n2C[C@@H](C)N3C)cc1C(F)(F)F [Compound 61] | 2000 to 5000
Cc1cccc(C(=O)N2CCC3(CC2)c2ccc(C(F)(F)F)n2CCN3C)n1 [Compound 63] | > 5000
CCC(C)(C)c1ccc(C(=O)N2CCC3(CC2)c2ccc(C(C)=O)n2CCN3C)cc1 [Compound 67] | > 5000
CN1CCn2c(Cl)ccc2C12CCN(C(=O)c1ccc(OCc3ccccc3)cc1)CC2 [Compound 68] | 2000 to 5000
CC(C)Cc1ccc(C(=O)N2CCC3(CC2)c2ccc(Cl)n2CCN3C)cc1 [Compound 73] | 2000 to 5000
COc1ccc(C(=O)N2CCC3(CC2)c2ccc(C(=O)c4ccccc4)n2CCN3C)cc1Cl [Compound 74] | 2000 to 5000
CC1(C)CNC2(CCN(C(=O)c3ccc(S(=O)(=O)NC4CC4)cc3)CC2)c2ccc(C(F)(F)F)n21 [Compound 76] | > 5000
CC(=O)c1ccc2n1CCN(C)C21CCN(C(=O)c2ccc(Oc3ccccc3)cc2)CC1 [Compound 78] | 2000 to 5000
CC(C)CCOc1ccc(C(=O)N2CCC3(CC2)NC(C)(C)Cn2cc(F)c(F)c23)cc1 [Compound 79] | > 5000
CCOc1ccc(C(=O)N2CCC3(CC2)c2ccc(Cl)n2CCN3C)cc1OCC [Compound 86] | > 5000
CCCc1ccc(C(=O)N2CCC3(CC2)c2ccc(C(=O)C(F)(F)F)n2CCN3C)cc1 [Compound 87] | ≤ 2000
COc1cc(C(=O)N2CC[C@@]3(c4ccc(C(F)(F)F)n4CCN3C)[C@H](F)C2)ccc1OC(C)C [Compound 88] | 2000 to 5000
COc1cc(C(=O)N2CCC3(CC2)c2ccc(C(=O)C(F)(F)F)n2CCN3C)ccc1OC(C)(C)C [Compound 90] | ≤ 2000
CC(C)Oc1ccc(C(=O)N2CCC3(CC2)c2ccc(C(=O)C(C)(C)C)n2CCN3C)c(F)c1 [Compound 91] | ≤ 2000

Continued, values first:

IC50 [nM] | Compound
≤ 2000 | COc1cc(C(=O)N2CCC3(CC2)c2ccc(C(F)(F)F)n2CCN3CC(F)(F)F)ccc1OC(C)C [Compound 59]
≤ 2000 | CCCCCc1ccc(C(=O)N2CCC3(CC2)c2ccc(C(=O)C(F)(F)F)n2CCN3C)cc1 [Compound 62]
≤ 2000 | CCOc1ccc(C(=O)N2CCC3(CC2)c2ccc(C(=O)C(F)(F)F)n2CCN3C)cc1C(F)(F)F [Compound 64]
≤ 2000 | CCCCOc1ccc(C(=O)N2CCC3(CC2)c2ccc(Cl)n2CCN3C)cc1OC [Compound 65]
≤ 2000 | CN1CCn2c(C(=O)C3CC3)ccc2C12CCN(C(=O)c1ccc(C3CCCCC3)cc1)CC2 [Compound 66]
≤ 2000 | CC(C)Oc1ccc(C(=O)N2CCC3(CC2)c2ccc(C(=O)C4CC4)n2CCN3C)cc1C(F)(F)F [Compound 69]
≤ 2000 | Cc1cc(C(=O)N2CCC3(CC2)c2ccc(C(=O)C4CC4)n2CCN3C)ccc1OC(C)C [Compound 70]
≤ 2000 | CN1CCn2c(C(=O)C(F)(F)F)ccc2C12CCN(C(=O)c1ccc(Cc3ccccc3)cc1)CC2 [Compound 71]
≤ 2000 | CN1CCn2c(C(=O)C(F)(F)F)ccc2C12CCN(C(=O)c1ccc(C(O)COCC(F)(F)F)cc1)CC2 (stereo not drawn) [Compound 72]
≤ 2000 | CN1CCn2c(C(F)(F)F)cc(Cl)c2C12CCN(C(=O)c1ccc(COCC(F)(F)F)cc1)CC2 [Compound 75]
≤ 2000 | CC(C)Oc1ccc(C(=O)N2CCC3(CC2)NCC(C)(C)n2c(C(F)(F)F)ccc23)cc1Cl [Compound 77]
≤ 2000 | CCc1ccc(C(=O)N2CCC3(CC2)c2ccc(C(F)(F)F)n2CCN3CCOC)cc1OC [Compound 80]
≤ 2000 | COc1cc(C(=O)N2CCC3(CC2)c2ccc(Cl)n2CCN3C)ccc1OCC(C)C [Compound 82]
≤ 2000 | COc1cc(C(=O)N2CCC3(CC2)NCCn2c(C(F)(F)F)ccc23)ccc1C(C)(C)O [Compound 83]
≤ 2000 | CN1CCn2c(C(F)(F)F)ccc2C12CCN(C(=O)c1ccc(C(C)(C)O)cc1)CC2 [Compound 84]
≤ 2000 | COc1cc(C(=O)N2CCC3(CC2)c2ccc(C(=O)C(C)(C)C)n2CCN3C)ccc1OC(C)(C)C [Compound 85]
